From US20230264009A1, “DISINFECTING CAP KIT FOR LUER ACCESS DEVICES” (SterileCare Inc., priority 2022, published 2023)

How the values were obtained:
Candida albicans SK4b = assay: MIC, micro broth dilution; assay type: cell-based; conditions: alone; C. albicans SK4b; 24 h
Procedure: (§1) An assay was made using a minimum inhibitory concentration (MIC) and minimum bactericidal concentration (MBC) and minimum fungicidal concentration (MFC) determination. The MIC was determined by the micro broth dilution method in 96-well plates. Serial two-fold dilutions of tetrasodium EDTA (from 2% to 0.015%), ethanol (from 50% to 0.1%) and chlorhexidine HCl (from 100 µg/mL to 0.025 µg/mL) were prepared in MH broth with a final volume of 90 µL per well. A 10 µL containing 1 × 10^5 bacterial cells or 2 × 10^3 fungal cells were added to each well. The inoculated plates were covered with a lid, sealed with Parafilm, and incubated for 24 h at 37° C. with slight rocking on a tilting platform shaker. After incubation, the optical density at 600 nm (OD 600 ) of the cultures in each well was measured using an xMark™ Microplate Absorbance Spectrophotometer (Bio-Rad). […] MBCs and MFCs were determined by transferring 100 µL from each well with no apparent growth onto appropriate agar plates, followed by incubation for 24 h at 37° C.

Escherichia coli ON29 [1] = assay: MIC, micro broth dilution; assay type: cell-based; conditions: alone; E. coli ON29; 24 h
Procedure: as §1

Proteus mirabilis ON153 = assay: MIC, micro broth dilution; assay type: cell-based; conditions: alone; P. mirabilis ON153; 24 h
Procedure: as §1

[2] = tested on: Pseudomonas aeruginosa SK1; assay: MIC, micro broth dilution; assay type: cell-based; conditions: alone; P. aeruginosa SK1; 24 h
Procedure: as §1

Serratia marcescens SK2 = assay: MIC, micro broth dilution; assay type: cell-based; conditions: alone; S. marcescens SK2; 24 h
Procedure: as §1

[3] = tested on: Staphylococcus aureus ON89; assay: MIC, micro broth dilution; assay type: cell-based; conditions: alone; S. aureus ON89; 24 h
Procedure: as §1

[4] = tested on: Staphylococcus epidermidis ON170; assay: MIC, micro broth dilution; assay type: cell-based; conditions: alone; S. epidermidis ON170; 24 h
Procedure: as §1

[5] = tested on: Stenotrophomonas maltophilia ON17; assay: MIC, micro broth dilution; assay type: cell-based; conditions: alone; S. maltophilia ON17; 24 h
Procedure: as §1

E. coli SK2 [6] = assay: MIC, micro broth dilution; assay type: cell-based, Escherichia coli; conditions: alone, 24 h
Procedure: as §1

C. albicans ON47 [7] = assay: MIC, micro broth dilution; assay type: cell-based, Candida albicans; conditions: alone, 24 h
Procedure: as §1

S. epidermidis SK9 = assay: MBC/MFC determination; assay type: cell-based, Staphylococcus epidermidis; conditions: alone
Procedure: as §1

MRSA ON184 = assay: Checkerboard titration, FICI; assay type: cell-based, Staphylococcus aureus
Procedure: (§2) A fourth composition and solution included tetrasodium EDTA with ethanol or chlorhexidine HCl. This fourth composition and solution were created using checkerboard titration methods using micro broth dilution in 96-well microtiter plates. The concentrations of antimicrobials used were based on previously determined MIC values. Briefly, 200 µL of two-fold dilutions of tetrasodium EDTA and ethanol or chlorhexidine HCl were prepared in MH or MH II broth with standardized cell suspension. […] Microtiter plates were incubated at 37° C. for 24 h, and the results were analyzed. Each test was performed in duplicate and included a growth control without adding any antimicrobials.

Escherichia coli ON29 [8] = assay: Checkerboard titration, FICI; assay type: cell-based; conditions: E. coli ON29
Procedure: as §2

E. coli SK2 [9] = assay: Checkerboard titration, FICI; assay type: cell-based, Escherichia coli
Procedure: as §2

C. albicans ON47 [10] = assay: Checkerboard titration, FMCI; assay type: cell-based, Candida albicans
Procedure: as §1, §2

[11] = tested on: Candida albicans SK4b biofilm; assay: MBEC Assay, 48-h biofilm, 24 h exposure; assay type: cell-based; conditions: C. albicans SK4b
Procedure: (§3) A biofilm cultivation cell composition was provided. This fifth composition was created using an MBEC Assay® biofilm inoculator, consisting of a polystyrene lid with 96 downward-protruding pegs and a corresponding base used to grow biofilms. A standardized inoculum was diluted in an appropriate biofilm growth medium to achieve a viable cell count of 1.5 × 10^6 CFU/mL of bacterial cells or […] CFU/mL of fungal cells. Then, 150 µL of this inoculum was transferred into each appropriate well, and the peg lids were inserted into the microtiter plates. The plates were sealed with Parafilm and were incubated at optimum temperature for 48 h with slight rocking for bacteria and shaking at 200 rpm for fungal strains. After incubation, the peg lid was removed from the base and rinsed twice with sterile phosphate-buffered saline (PBS) for 2 min to remove loosely attached non-sessile cells. Before the antimicrobial challenge, the pegs in column 1 (n = 8) were considered the biofilm growth control; these pegs were removed from the lids, placed into 200 µL of recovery medium, and analyzed for starting biofilm cell numbers as described below. The rinsed pegs were placed into new 96-well plates containing two-fold dilutions of antimicrobials such as tetrasodium EDTA (4 %-0.0125%), ethanol (100%-0.2%), and chlorhexidine HCl (100 µg/mL-0.4 µg/mL) in 200 µL of suitable biofilm growth medium per well and incubated at optimum temperature for 24 h. After the antimicrobial challenge, the pegs were rinsed twice with sterile PBS for 2 min and placed into a new 96-well plate containing 200 µL of recovery medium. The recovery plates were sealed with Parafilm, and biofilm cells were dislodged from the pegs by sonication for 30 min with a Branson 3510 bath sonicator. The biofilm cells in the recovery medium were serially diluted, and a drop dilution assay was performed to enumerate the viable cells. MBEC values were determined as the minimum concentration of antimicrobials that yielded a viable cell count at or lower than the 125 CFU/mL detection limit.

[12] = tested on: Escherichia coli SK2 biofilm; assay: MBEC Assay, 48-h biofilm, 24 h exposure; assay type: cell-based; conditions: E. coli SK2
Procedure: as §3

[13] = tested on: Proteus mirabilis ON153 biofilm; assay: MBEC Assay, 48-h biofilm, 24 h exposure; assay type: cell-based; conditions: P. mirabilis ON153
Procedure: as §3

[14] = tested on: Pseudomonas aeruginosa SK1 biofilm; assay: MBEC Assay, 48-h biofilm, 24 h exposure; assay type: cell-based; conditions: P. aeruginosa SK1
Procedure: as §3

[15] = tested on: Staphylococcus aureus ON89 biofilm; assay: MBEC Assay, 48-h biofilm, 24 h exposure; assay type: cell-based; conditions: S. aureus ON89
Procedure: as §3

[16] = tested on: Staphylococcus epidermidis SK9 biofilm; assay: MBEC Assay, 48-h biofilm, 24 h exposure; assay type: cell-based; conditions: S. epidermidis SK9
Procedure: as §3

[17] = tested on: Staphylococcus epidermidis SK9 biofilm; assay: FBEC index, checkerboard dilution on biofilms; assay type: cell-based; conditions: S. epidermidis SK9 biofilm
Procedure: In step (4), microtiter plates are incubated at 37° C. for 24 h. then (6), after incubation, the bacterial and fungal cells were dislodged from the pegs into the recovery medium described above.
Three 10-µL aliquots, for a total of 30 µL from each well of recovery medium, were spotted on MH agar plates and incubated for 24 h at 37° C. […] The FBEC determination is a modification of the FICI.

[18] = tetrasodium EDTA + chlorhexidine HCl

O=C([O-])CN(CCN(CC(=O)[O-])CC(=O)[O-])CC(=O)[O-].[Na+].[Na+].[Na+].[Na+] [EDTA, tetrasodium EDTA]
MIC (Candida albicans SK4b): 1 % w/v | MIC (Escherichia coli ON29 [1]): 0.5 % w/v | MIC (Proteus mirabilis ON153): 1 % w/v | MIC [2]: 0.25 % w/v | MIC (Serratia marcescens SK2): 2 % w/v | MIC [3]: 0.063 % w/v | MIC [4]: 0.063 % w/v | MIC [5]: 0.063 % w/v | MIC (E. coli SK2 [6]): 0.5 % w/v | MIC (C. albicans ON47 [7]): 1 % w/v | MBC/MFC (S. epidermidis SK9): 0.5 % w/v | Concentration in combination giving FICI (MRSA ON184; [18]): 0.008 % w/v | Concentration in combination giving FICI (MRSA ON184; tetrasodium EDTA + ethanol): 0.015 % w/v | Concentration in combination giving FICI (Escherichia coli ON29 [8]; [18]): 0.008 % w/v | Concentration in combination giving FICI (Escherichia coli ON29 [8]; tetrasodium EDTA + ethanol): 0.25 % w/v | Concentration in combination giving FICI (E. coli SK2 [9]; [18]): 0.008 % w/v | Concentration in combination giving FICI (E. coli SK2 [9]; tetrasodium EDTA + ethanol): 0.015 % w/v | Concentration in combination giving FMCI (C. albicans ON47 [10]; [18]): 0.031 % w/v | Concentration in combination giving FMCI (C. albicans ON47 [10]; tetrasodium EDTA + ethanol): 0.25 % w/v | MBEC [11]: 1 % w/v | MBEC [12]: 2 % w/v | MBEC [13]: 4 % w/v | MBEC [14]: 4 % w/v | MBEC [15]: 4 % w/v | MBEC [16]: 2 % w/v | FBEC (concentration in combination) [17, 18]: 0.125 % w/v | FBEC (concentration in combination) ([17]; tetrasodium EDTA + ethanol): 0.031 % w/v
